From ChEMBL document CHEMBL1130846, “A new class of sulfoxide surfactants derived from Tris. Synthesis and preliminary assessments of their properties” (Bioorg Med Chem Lett, 1998)
Converted amounts (≈) assume the structure as drawn.

Experiments:
[1] = Water solubility was evaluated; type: ADME; conditions: read-out: Ws
[2] = organism: Rattus norvegicus; assay: Compound was evaluated for the amount of protein solubilized, expressed as percentage weight of freeze-dried microsomes (20 mg) of rat liver; type: functional
[3] = organism: Rattus norvegicus; assay: Compound was evaluated for the amount of protein solubilized, expressed as percentage weight of freeze-dried mitochondria (20 mg) of rat liver; type: functional, organism-based
[4] = organism: Rattus norvegicus; assay: Compound was evaluated for the amount of protein solubilized, expressed as percentage weight of freeze-dried nuclear membrane (100 mg) of rat liver; type: functional

`CCCCCCCC[S+]([O-])CCC(=O)NC(CO)(CO)CO` (configuration not stated) showed a solubility [1] of over 10000 µg/mL, a Weight [2] of 71% and a Weight [3] of 69.8%. For the same compound, the Weight [4] was 55.5%.

`O=C(CC[S+]([O-])CCC(F)(F)C(F)(F)C(F)(F)C(F)(F)C(F)(F)C(F)(F)F)NC(CO[C@H]1O[C@@H](CO)[C@@H](O)[C@@H](O)[C@@H]1O)(CO[C@@H]1O[C@H](CO)[C@H](O)[C@H](O)[C@H]1O)CO[C@@H]1O[C@H](CO)[C@H](O)[C@H](O)[C@H]1O` (some centres not stated) showed a solubility [1] of over 10000 µg/mL.

Compound `CC(C)(C)CC(C)(C)c1ccc(OCCO)cc1` has a Weight [2] of 76.2%, a Weight [3] of 74.9% and a Weight [4] of 62.2%.

Compound `CCCCCCCCCC[S+]([O-])CCC(=O)NC(CO)(CO)CO` (configuration not stated) has a solubility [1] of over 10000 µg/mL, a Weight [2] of 68.9% and a Weight [3] of 71%. It also gave a Weight [4] of 57.4%.

For `CCCCCCCCCCCC[S+]([O-])CCC(=O)NC(CO)(CO)CO` (configuration not stated), the solubility [1] was over 6000 µg/mL, the Weight [2] was 62.5% and the Weight [3] was 65.6%. It also gave a Weight [4] of 52.4%.

With `O=C(CC[S+]([O-])CCC(F)(F)C(F)(F)C(F)(F)C(F)(F)C(F)(F)C(F)(F)F)NC(CO)(CO)CO` (configuration not stated) the solubility [1] was 1200 µg/mL (≈ 2100 µM), the Weight [2] was 32.6% and the Weight [3] was 30.3%. It also gave a Weight [4] of 25.5%.

With `O=C(CC[S+]([O-])CCC(F)(F)C(F)(F)C(F)(F)C(F)(F)C(F)(F)C(F)(F)C(F)(F)C(F)(F)F)NC(CO)(CO)CO` (configuration not stated) the solubility [1] was 25 µg/mL (≈ 37.2 µM).

For `O=C(CC[S+]([O-])CCC(F)(F)C(F)(F)C(F)(F)C(F)(F)C(F)(F)C(F)(F)C(F)(F)C(F)(F)F)NC(CO)(CO)COC1O[C@H](CO)[C@H](O)[C@H](O)[C@H]1O` (some centres not stated), the solubility [1] was over 1500 µg/mL.

Work on `CCCCCCCCCCCC[S+]([O-])CCC(=O)NC(CO)(CO)CO[C@@H]1O[C@H](CO)[C@H](O)[C@H](O)[C@H]1O` (some centres not stated) yielded a solubility [1] of over 10000 µg/mL.

Work on `CCCCCCCCCCCCCCCC[S+]([O-])CCC(=O)NC(CO)(CO)CO` (configuration not stated) yielded a solubility [1] of 85 µg/mL (≈ 189 µM), a Weight [2] of 58.4% and a Weight [3] of 58.6%. For the same compound, the Weight [4] was 45.7%.
